pIC50: −log10 of the molar value.
Test system: K86415-001-R-J1-PDC complex spheroids, viability
Assay: Anticancer human tumor K86415-001-R-J1-PDC patient-derived lung adenocarcinoma cell line growth inhibition [RAS]
Conditions: for pIC50: curve of first compound; for viability, T/C: stronger effect = lower value
In short: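 Multi-cell-type spheroids: tumor cells plus HUVEC endothelial cells and mesenchymal stem cells. RAS-pathway inhibitors were combined with targeted agents, each dosed in half-log steps down from clinical Cmax, or from 10 microM when Cmax was unknown.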

[1] = second compound 0.00316 µM, first compound 0.00316 µM
[2] = second compound 0.00316 µM, first compound 0.01 µM
[3] = second compound 0.00316 µM, first compound 0.0316 µM
[4] = second compound 0.00316 µM, first compound 0.1 µM
[5] = second compound 0.01 µM, first compound 0.00316 µM
[6] = second compound 0.01 µM, first compound 0.01 µM
[7] = second compound 0.01 µM, first compound 0.0316 µM
[8] = second compound 0.01 µM, first compound 0.1 µM
[9] = second compound 0.0316 µM, first compound 0.00316 µM
[10] = second compound 0.0316 µM, first compound 0.01 µM
[11] = second compound 0.0316 µM, first compound 0.0316 µM
[12] = second compound 0.0316 µM, first compound 0.1 µM
[13] = second compound 0.1 µM, first compound 0.00316 µM
[14] = second compound 0.1 µM, first compound 0.01 µM
[15] = second compound 0.1 µM, first compound 0.0316 µM
[16] = second compound 0.1 µM, first compound 0.1 µM
[17] = second compound 0.316 µM, first compound 0.00316 µM
[18] = second compound 0.316 µM, first compound 0.01 µM
[19] = second compound 0.316 µM, first compound 0.0316 µM
[20] = second compound 0.316 µM, first compound 0.1 µM
[21] = second compound 1 µM, first compound 0.00316 µM
[22] = second compound 1 µM, first compound 0.01 µM
[23] = second compound 1 µM, first compound 0.0316 µM
[24] = second compound 1 µM, first compound 0.1 µM
[25] = second compound 0.00316 µM, first compound 0.316 µM
[26] = second compound 0.00316 µM, first compound 1 µM
[27] = second compound 0.01 µM, first compound 0.316 µM
[28] = second compound 0.01 µM, first compound 1 µM
[29] = second compound 0.0316 µM, first compound 0.316 µM
[30] = second compound 0.0316 µM, first compound 1 µM
[31] = second compound 0.1 µM, first compound 0.316 µM
[32] = second compound 0.1 µM, first compound 1 µM
[33] = second compound 0.316 µM, first compound 0.316 µM
[34] = second compound 0.316 µM, first compound 1 µM
[35] = second compound 1 µM, first compound 0.316 µM
[36] = second compound 1 µM, first compound 1 µM
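Also: spheroids exposed to agents for seven days before readout.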

Work on `CC(C)n1nc(-c2ccc3oc(N)nc3c2)c2c(N)ncnc21` + C=CC(=O)N1CCN(c2nc(OCC3CCCN3C)nc3c(F)c(-c4nc(N)cc(C)c4C(F)(F)F)c(Cl)cc23)C(C)C1 yielded a pIC50 (second compound 0.00316 µM) greater than 9.50, a pIC50 (second compound 0.01 µM) greater than 9.50 and a pIC50 (second compound 0.0316 µM) greater than 9.50. It also gave a pIC50 (second compound 0.1 µM) greater than 9.50, a pIC50 (second compound 0.316 µM) greater than 9.50 and a pIC50 (second compound 1 µM) greater than 9.50. The viability, T/C (second compound 0.00316 µM, first compound 0.000316 µM) was 18.4%, the viability, T/C (second compound 0.00316 µM, first compound 0.001 µM) was 17.5% and the viability, T/C [1] was 16.8%. The viability, T/C [2] was 19.4%, the viability, T/C [3] was 31.8% and the viability, T/C [4] was 12.5%. The viability, T/C (second compound 0.01 µM, first compound 0.000316 µM) was 11.8%, the viability, T/C (second compound 0.01 µM, first compound 0.001 µM) was 11.1% and the viability, T/C [5] was 11.4%. It also gave a viability, T/C [6] of 9%, a viability, T/C [7] of 18.9% and a viability, T/C [8] of 6%. The viability, T/C (second compound 0.0316 µM, first compound 0.000316 µM) was 10.9%, the viability, T/C (second compound 0.0316 µM, first compound 0.001 µM) was 9.65% and the viability, T/C [9] was 8.36%. For the same molecule, the viability, T/C [10] was 8%, the viability, T/C [11] was 8.61% and the viability, T/C [12] was 4.33%. For the same molecule, the viability, T/C (second compound 0.1 µM, first compound 0.000316 µM) was 10.5%, the viability, T/C (second compound 0.1 µM, first compound 0.001 µM) was 7.96% and the viability, T/C [13] was 7.44%. The viability, T/C [14] was 7.78%, the viability, T/C [15] was 5.11% and the viability, T/C [16] was 3.67%. The viability, T/C (second compound 0.316 µM, first compound 0.000316 µM) was 10.1%, the viability, T/C (second compound 0.316 µM, first compound 0.001 µM) was 8.76% and the viability, T/C [17] was 9.08%. For the same molecule, the viability, T/C [18] was 8.68%, the viability, T/C [19] was 6.52% and the viability, T/C [20] was 3.86%. The viability, T/C (second compound 1 µM, first compound 0.000316 µM) was 8.74%, the viability, T/C (second compound 1 µM, first compound 0.001 µM) was 8.53% and the viability, T/C [21] was 8.04%. The viability, T/C [22] was 8.63%, the viability, T/C [23] was 6.85% and the viability, T/C [24] was 2.72%.
Work on `CC(Nc1ccc2c(c1)OCCn1cc(N3C(=O)OCC3C(F)F)nc1-2)C(N)=O` (stereo unspecified) + C=CC(=O)N1CCN(c2nc(OCC3CCCN3C)nc3c(F)c(-c4nc(N)cc(C)c4C(F)(F)F)c(Cl)cc23)C(C)C1 yielded a pIC50 (second compound 0.00316 µM) greater than 7.50, a pIC50 (second compound 0.01 µM) greater than 7.50 and a pIC50 (second compound 0.0316 µM) greater than 7.50. The pIC50 (second compound 0.1 µM) was greater than 7.50, the pIC50 (second compound 0.316 µM) was greater than 7.50 and the pIC50 (second compound 1 µM) was greater than 7.50. The viability, T/C [3] was 12.4%, the viability, T/C [4] was 11% and the viability, T/C [25] was 9.71%. It also gave a viability, T/C [26] of 13.9%, a viability, T/C (second compound 0.00316 µM, first compound 3.16 µM) of 8.57% and a viability, T/C (second compound 0.00316 µM, first compound 10 µM) of 4.65%. For the same molecule, the viability, T/C [7] was 10.6%, the viability, T/C [8] was 8.09% and the viability, T/C [27] was 7.67%. The viability, T/C [28] was 4.13%, the viability, T/C (second compound 0.01 µM, first compound 3.16 µM) was 2.86% and the viability, T/C (second compound 0.01 µM, first compound 10 µM) was 1.6%. The viability, T/C [11] was 8.44%, the viability, T/C [12] was 6.97% and the viability, T/C [29] was 5.95%. The viability, T/C [30] was 3.55%, the viability, T/C (second compound 0.0316 µM, first compound 3.16 µM) was 2.24% and the viability, T/C (second compound 0.0316 µM, first compound 10 µM) was 1.34%. The viability, T/C [15] was 8.36%, the viability, T/C [16] was 6.36% and the viability, T/C [31] was 3.79%. It also gave a viability, T/C [32] of 3.04%, a viability, T/C (second compound 0.1 µM, first compound 3.16 µM) of 1.94% and a viability, T/C (second compound 0.1 µM, first compound 10 µM) of 1.11%. The viability, T/C [19] was 8.27%, the viability, T/C [20] was 6.69% and the viability, T/C [33] was 4.1%. The viability, T/C [34] was 5.15%, the viability, T/C (second compound 0.316 µM, first compound 3.16 µM) was 2.4% and the viability, T/C (second compound 0.316 µM, first compound 10 µM) was 1.49%. It also gave a viability, T/C [23] of 7.44%, a viability, T/C [24] of 6.59% and a viability, T/C [35] of 4.3%. The viability, T/C [36] was 2.92%, the viability, T/C (second compound 1 µM, first compound 3.16 µM) was 2.11% and the viability, T/C (second compound 1 µM, first compound 10 µM) was 1.04%.
`O=C(c1ccc(F)c(F)c1Nc1ccc(I)cc1F)N1CC(O)([C@@H]2CCCCN2)C1` + C=CC(=O)N1CCN(c2nc(OCC3CCCN3C)nc3c(F)c(-c4nc(N)cc(C)c4C(F)(F)F)c(Cl)cc23)C(C)C1 was tested, and the pIC50 (second compound 0.00316 µM) was greater than 8.50, the pIC50 (second compound 0.01 µM) was greater than 8.50 and the pIC50 (second compound 0.0316 µM) was greater than 8.50. It also gave a pIC50 (second compound 0.1 µM) greater than 8.50, a pIC50 (second compound 0.316 µM) greater than 8.50 and a pIC50 (second compound 1 µM) greater than 8.50. The viability, T/C [1] was 18.7%, the viability, T/C [2] was 15.5% and the viability, T/C [3] was 11.7%. For the same molecule, the viability, T/C [4] was 11.2%, the viability, T/C [25] was 6.3% and the viability, T/C [26] was 3.59%. For the same molecule, the viability, T/C [5] was 10.7%, the viability, T/C [6] was 9.82% and the viability, T/C [7] was 7.43%. For the same molecule, the viability, T/C [8] was 7.21%, the viability, T/C [27] was 5.24% and the viability, T/C [28] was 2.8%. It also gave a viability, T/C [9] of 10.5%, a viability, T/C [10] of 8.28% and a viability, T/C [11] of 7.31%. The viability, T/C [12] was 5.71%, the viability, T/C [29] was 6.7% and the viability, T/C [30] was 2.39%. It also gave a viability, T/C [13] of 9.48%, a viability, T/C [14] of 8.63% and a viability, T/C [15] of 6.77%. It also gave a viability, T/C [16] of 5.29%, a viability, T/C [31] of 3.4% and a viability, T/C [32] of 2.5%. It also gave a viability, T/C [17] of 9.04%, a viability, T/C [18] of 7.51% and a viability, T/C [19] of 6.81%. For the same molecule, the viability, T/C [20] was 5.26%, the viability, T/C [33] was 5.12% and the viability, T/C [34] was 1.9%. For the same molecule, the viability, T/C [21] was 10%, the viability, T/C [22] was 8.81% and the viability, T/C [23] was 8.35%. For the same molecule, the viability, T/C [24] was 5.6%, the viability, T/C [35] was 4.91% and the viability, T/C [36] was 2.61%.
